Like-named read-outs stand apart in the source and are kept apart here.
How the values were obtained:
[1] = test system: vesicular stomatitis virus (VSV); assay type: cell-based, vesicular stomatitis virus; mouse L929 cells
rabbits = assay: Pyrogenicity test; conditions: i.v., rabbit, feverish = rise of 0.6° C. or more
Protocol: In this test, rabbits were used and 5 ml/kg of the test compound diluted to a definite concentration with physiological saline was intravenously injected into each animal. Then the rectal temperature was measured. Rabbits showing an increase in the bodily temperature by 0.6° C. or more were referred to as feverish.

[2] = test system: BALB/c mouse spleen cells; assay: Polyclonal B cell activation activity (ELISPOT); conditions: 72 hours
anti-BSA IgG antibody = assay: Adjuvant activity (serum anti-BSA IgG by ELISA); assay type: in vivo, mouse (BALB/c); conditions: 100 μg compound with 100 μg BSA in FIA, s.c., days 0 and 28; day 5 after booster; BSA alone = 1.00
Protocol: In this test, male BALB/c mice (each group having 6 animals) were used. On the days 0 and 28, 100 μg of bovine serum albumin (BSA) containing 100 μg of the compound of the present invention on the comparative compound or no such a compound was subcutaneously injected into each animal in the form of a water-in-oil type emulsion in Freund's incomplete adjuvant (FIA). On the day 5 following the booster, the level of anti-BSA IgG antibody formed in the serum was determined by the ELISA method. […] [formula]

male C57BL mouse = assay: Galactosamine-loaded lethal toxicity test; assay type: in vivo; conditions: 16 mg D-galactosamine/HCl i.p., compound i.v., 24 hours
Protocol: The galactosamine-loaded lethal toxicity was determined by using the following experimental system.
16 mg of D-galactosamine/HCl was intraperitoneally administered to a male C57BL mouse aged 8 weeks. Immediately thereafter, the compound of the present invention was intravenously injected into the animal and the conditions were observed after 24 hours.

[3] = test system: BALB/c mouse spleen cells; assay: Mitogenic activity (3H-thymidine incorporation into mouse spleen cells)
[4] = test system: Moloney virus-induced lymphoma YAC-1; assay: NK (natural killer) activity of spleen cells from treated mice against YAC-1 (51Cr release); assay type: in vivo, mouse (BALB/c)
Protocol: This test was carried out in the following manner. […] On the day 14, the spleen cells of the animal were collected. To the prepared spleen cells (1×10^6 cells/0.1 ml), target cells (Moloney virus-inducedlymphoma YAC-1; 2×10^4 cells/ml) labeled with ^51 Cr were added followed by the incubation for 4 hours. […] After the completion of the incubation, 0.1 ml of the culture supernatant was collected and the amount (radiation dose) of ^51 Cr liberated due to the damage in the target cells was measured. Then the NK activity (%) was calculated by substituting each value in accordance with the following formula. NK Activity (%)={(Radioactivity of test group-Radioactivity of minimum free control group)(cpm)/(Radioactivity maximum free control group-Radioactivity of minimum free control group)(cpm)}

[5] = test system: IL-1 receptor antagonist (IL-1ra); assay: IL-1 receptor antagonist (IL-1ra) production (ELISA), human peripheral blood monocytes; assay type: cell-based
TNF-α = assay: Cytokine inducing activity: TNF-α (ELISA), human peripheral blood monocytes; assay type: cell-based; conditions: 24 hours
Protocol: (§1) The cytokine inducing activity was tested by using an ELISA system for assaying TNF-α (manufactured by Amersham Japan) and another ELISA system for assaying IL-1β (manufactured by Otsuka Pharmaceutical Co., Ltd.). […] Then the cytokines in the culture supernatant were assayed by the ELISA method.

[6] = test system: Tachypleus tridentatus lysate; conditions: Pregel reagent, gel formation
male rabbit = assay: Local Shwartzman reaction; assay type: in vivo; conditions: 100 μg/site intradermal, elicitation with Salmonella minnesota LPS i.v.
Protocol: This test was carried out in the following manner. The test compound, which had been diluted to a definite concentration with 0.2 ml of physiological saline, was intradermally injected into a male rabbit. After 24 hours, 100 μg/ml/kg of Salmonella minnesota 9700 LPS-W (manufactured by Difco) was intravenously injected into the animal for elicitation. After 4 hours, intradermal hemorrhage was observed.

IL-1β = assay: Cytokine inducing activity: IL-1β (ELISA), human peripheral blood monocytes; assay type: cell-based
Protocol: as §1

[7] = test system: methylcholanthrene-induced fibrosarcoma (Meth A); assay: Antitumor activity (macrophage cytostatic activity on Meth A fibrosarcoma); assay type: cell-based, mouse (BALB/c)
Protocol: This test was effected by examining a cytostatic activity on methylcholanthrene-induced fibrosarcoma (Meth A). Namely, adherent cells (macrophages) were collected from spleen cells of a BALB/c mouse. […] Then the ^3 H-thymidine-uptake suppression ratio was calculated by substituting the obtained values in accordance with the following formula and the result was expressed as the cytostatic activity on macrophages.
Cytostatic Activity (%)={1-(Radioactivity of macrophages and target cells-Radioactivity of macrophages alone)(cpm)/(Radioactivity of target cells along)}×100

[8] = Mus musculus, read-out: Mitogen activity, Stimulation Index

What does the source list for `CCCCCCCCCCCCCC(=O)OC(CCCCCCCCCCC)CC(=O)O[C@@H]1[C@@H](NC(=O)CC(CCCCCCCCCCC)OC(=O)CCCCCCCCCCC)[C@H](OC[C@H]2O[C@H](OP(=O)(O)O)[C@H](NC(=O)CC(O)CCCCCCCCCCC)[C@@H](OC(=O)CCCCCCCCCCCCC)[C@@H]2O)O[C@H](CO)[C@H]1OP(=O)(O)O` (stereo partly drawn) [Comparative compound 506, 6-O-[2-deoxy-2-(3-dodecanoyloxytetradecanoylamino)-3-O-(3-tetra-decanoyloxytetradecanoyl)-4-O-phosphono-β-D-glucopyranosyl]-2-deoxy-2-(3-hydroxytetradecanoylamino)-3-O-tetradecanoyl-1-O-phosphono-α-D-glucopyranose, reference compound]?
Antiviral activity (reciprocal of the dilution ratio to the 1 mg/ml sample wherein L929 cells survived at a ratio of 50%) [1]: 2.2; Pyrogenicity (rabbits; dose of 0.01 μg): showed pyrogenicity; Polyclonal B cell activation activity, Stimulation Index ([2]; 10 μg per 2.5×10^6 cells): 15.7; Polyclonal B cell activation activity, Stimulation Index ([2]; 100 μg per 2.5×10^6 cells): 20.7; Adjuvant activity, Stimulation Index (anti-BSA IgG antibody): 1.99; Galactosamine-loaded lethal toxicity, LD50 (male C57BL mouse): 0.0079 µg; Mitogen activity, Stimulation Index ([3]; 50 μg/ml): 6.28

What does the source list for `CCCCCCCCCCCCCCCC(=O)OC(CCCCCCCCCCCC(C)C)CC(=O)NC1C(OCC2OC(OP(=O)(O)O)C(NC(=O)CC(O)CCCCCCCCCCCC(C)C)C(O)C2O)OC(CO)C(O)C1O` (stereo not drawn) [Invention compound]?
Antiviral activity (reciprocal of the dilution ratio to the 1 mg/ml sample wherein L929 cells survived at a ratio of 50%) ([1]; VSV 100 TCID50/0.1 ml on L929 cells, 24 hours): 4.9; Pyrogenicity (rabbits; dose of 10 μg/kg): showed no pyrogenicity; NK activity ([4]; 100 μg i.v. on days 0 and 7, spleen cells collected day 14, BALB/c mouse, YAC-1 targets, 4 hours): 50.1%; NK activity, comparison with synthetic lipid A 506 ([4]; 100 μg i.v. on days 0 and 7, in words): comparable to the synthetic lipid A 506; Polyclonal B cell activation activity, Stimulation Index ([2]; 10 μg per 2.5×10^6 cells): 22.0; Polyclonal B cell activation activity, Stimulation Index ([2]; 100 μg per 2.5×10^6 cells): 30.3; Adjuvant activity, Stimulation Index (anti-BSA IgG antibody): 2.48; production of IL-1ra in the culture supernatant, compared with synthetic lipid A 506 [5]: in a larger amount than the synthetic lipid A 506 did; Galactosamine-loaded lethal toxicity, LD50 (male C57BL mouse): > 10 µg; fold induction at 5 µg/mL [3, 8]: 4.17; fold induction at 50 µg/mL [3, 8]: 7.46; activity of inducing the production of TNF-α (TNF-α): little activity; Limulus test, minimum effective dose relative to that of the synthetic lipid A 506 [6]: 1,000 times; Local Shwartzman reaction, hemorrhage (male rabbit): no hemorrhage; suppression of the production of IL-1β induced by LPS originating in Escherichia coli (IL-1β; added simultaneously, 50 times as much as LPS): suppressed the production of IL-1β; suppression of the production of IL-1β induced by compound 506 (IL-1β; added simultaneously, 50 times as much as synthetic lipid A 506): suppressed the production of IL-1β; activity of inducing the production of IL-1β (IL-1β; human peripheral blood monocytes, 24 hours): little activity; inhibition at 10 µg/mL ([7]; 24 h, 10 μg/ml, Meth A with mouse macrophages): 58.6%; inhibition at 100 µg/mL ([7]; 24 h, 100 μg/ml, Meth A with mouse macrophages): 64%; Cytostatic activity, comparison with synthetic lipid A 506 ([7]; in words): comparable to that of the synthetic lipid A 506
